Experimental data as given in a compilation of properties of binary mixtures (doi:10.1016/j.jiec.2013.02.010).

Assay: xn = mol fraction of the nth substance listed
Conditions: 101 kPa

CN(C)C=O + CCCC[n+]1ccn(C)c1.[Cl-]
x1 = 1
Conditions | viscosity [mPa·s]
293.15 K | 0.86
298.15 K | 0.8
303.15 K | 0.78
308.15 K | 0.73

CCCC[n+]1ccn(C)c1.[Cl-] + CO
Conditions | electrical conductivity [S/m] | viscosity [mPa·s]
293.15 K, x2 = 0.6026 | – | 23.2
293.15 K, x2 = 0.7002 | – | 8.4
293.15 K, x2 = 0.8008 | – | 3.41
293.15 K, x2 = 0.8999 | – | 1.63
293.15 K, x2 = 0.95 | – | 0.95
298.15 K, x2 = 0.5213 | 0.632 | 37.6
298.15 K, x2 = 0.5458 | 0.777 | 32.5
298.15 K, x2 = 0.5925 | 1.08 | 20.4
298.15 K, x2 = 0.7996 | 3.46 | 3.25
298.15 K, x2 = 0.9007 | 4.08 | 1.38
298.15 K, x2 = 0.95 | 3.32 | 0.88
298.15 K, x2 = 0.975 | 2.24 | 0.68
303.15 K, x2 = 0.5173 | – | 36.4
303.15 K, x2 = 0.6044 | – | 16
303.15 K, x2 = 0.7993 | – | 2.86
303.15 K, x2 = 0.8999 | – | 1.25
303.15 K, x2 = 0.95 | – | 0.85
308.15 K, x2 = 0.5001 | – | 34.5
308.15 K, x2 = 0.5458 | – | 23.7
308.15 K, x2 = 0.6026 | – | 14.9
308.15 K, x2 = 0.7001 | – | 6.6
308.15 K, x2 = 0.8008 | – | 2.76

CCCC[n+]1ccn(C)c1.[Cl-] + CCO
Conditions | electrical conductivity, 298.15 K [S/m] | viscosity, 293.15 K [mPa·s] | viscosity, 298.15 K [mPa·s] | viscosity, 303.15 K [mPa·s] | viscosity, 308.15 K [mPa·s]
x2 = 0.4991 | 0.326 | 75 | 61.4 | – | 38.3
x2 = 0.5533 | 0.483 | 47.9 | 37.5 | 31.1 | 25.6
x2 = 0.6011 | 0.648 | 30.6 | 23.8 | – | 17
x2 = 0.7003 | – | 12.1 | – | 9.2 | 8.2
x2 = 0.8002 | – | 5.23 | – | 4.25 | 3.84
x2 = 0.9 | 1.38 | 2.46 | 2.24 | 2.06 | 1.92
x2 = 0.9501 | 0.927 | – | 1.62 | – | 1.35
x2 = 0.975 | 0.52 | – | 1.29 | – | –

CCCC[n+]1ccn(C)c1.[Cl-] + O
Conditions | electrical conductivity, 298.15 K [S/m] | viscosity, 293.15 K [mPa·s] | viscosity, 298.15 K [mPa·s] | viscosity, 303.15 K [mPa·s] | viscosity, 308.15 K [mPa·s]
x2 = 0.4982 | 0.32 | – | 163 | 118 | –
x2 = 0.5535 | 0.502 | 141 | 105 | 83 | 61.6
x2 = 0.6132 | 0.844 | 86 | 64.5 | 50.4 | 38.7
x2 = 0.7033 | 1.54 | 39.4 | 30.4 | 24.5 | 20
x2 = 0.8034 | – | 15.5 | – | 10.5 | 8.69
x2 = 0.8999 | 5.31 | 5.3 | 4.38 | – | 3.3
x2 = 0.9502 | 5.98 | – | 2.22 | 1.94 | 1.74
x2 = 0.975 | 4.98 | – | 1.52 | – | –

CO + CCCC[n+]1ccn(C)c1.[Cl-]
x1 = 1
Conditions | viscosity [mPa·s]
293.15 K | 0.61
298.15 K | 0.55
303.15 K | 0.51

CC#N + CCCC[n+]1ccn(C)c1.[Cl-]
x1 = 1
Conditions | viscosity [mPa·s]
293.15 K | 0.36
298.15 K | 0.35
303.15 K | 0.32

CCO + CCCC[n+]1ccn(C)c1.[Cl-]
x1 = 1
Conditions | viscosity [mPa·s]
293.15 K | 1.19
298.15 K | 1.08
308.15 K | 0.89

CCCC[n+]1ccn(C)c1.[Cl-] + CC#N
Conditions | electrical conductivity [S/m] | viscosity [mPa·s]
293.15 K, x2 = 0.5028 | – | 111
293.15 K, x2 = 0.5548 | – | 60.5
293.15 K, x2 = 0.6007 | – | 38.5
293.15 K, x2 = 0.7003 | – | 11.9
293.15 K, x2 = 0.8 | – | 3.9
293.15 K, x2 = 0.9002 | – | 1.17
293.15 K, x2 = 0.9499 | – | 0.69
298.15 K, x2 = 0.502 | 0.29 | 76
298.15 K, x2 = 0.5483 | 0.4 | 53.6
298.15 K, x2 = 0.6038 | 0.578 | 28.4
298.15 K, x2 = 0.7021 | 1.03 | 10
298.15 K, x2 = 0.9002 | 1.9 | 1.12
298.15 K, x2 = 0.9499 | 1.7 | 0.63
298.15 K, x2 = 0.975 | 1.3 | 0.46
303.15 K, x2 = 0.5065 | – | 63.1
303.15 K, x2 = 0.5524 | – | 40.2
303.15 K, x2 = 0.6025 | – | 25.5
303.15 K, x2 = 0.7003 | – | 9.3
303.15 K, x2 = 0.8007 | – | 3.4
303.15 K, x2 = 0.9002 | – | 1.06
303.15 K, x2 = 0.9499 | – | 0.57
308.15 K, x2 = 0.5028 | – | 55.4
308.15 K, x2 = 0.5548 | – | 33.3
308.15 K, x2 = 0.6007 | – | 22
308.15 K, x2 = 0.7003 | – | 8.5
308.15 K, x2 = 0.8 | – | 3.04
308.15 K, x2 = 0.9002 | – | 1.02
308.15 K, x2 = 0.9499 | – | 0.53

CCCC[n+]1ccn(C)c1.[Cl-] + CN(C)C=O
Conditions | electrical conductivity [S/m] | viscosity [mPa·s]
293.15 K, x2 = 0.5025 | – | 77
293.15 K, x2 = 0.5565 | – | 49.1
293.15 K, x2 = 0.6003 | – | 33.9
293.15 K, x2 = 0.6996 | – | 16.9
293.15 K, x2 = 0.8014 | – | 5.1
293.15 K, x2 = 0.95 | – | 1.32
298.15 K, x2 = 0.501 | 0.218 | 64
298.15 K, x2 = 0.6134 | 0.439 | 24
298.15 K, x2 = 0.6994 | 0.592 | 11.4
298.15 K, x2 = 0.8017 | 0.857 | 4.44
298.15 K, x2 = 0.9 | 0.922 | 1.88
298.15 K, x2 = 0.9502 | 0.766 | 1.21
303.15 K, x2 = 0.552 | – | 34.5
303.15 K, x2 = 0.7005 | – | 9.5
303.15 K, x2 = 0.9 | – | 1.73
308.15 K, x2 = 0.5007 | – | 39.9
308.15 K, x2 = 0.5564 | – | 25.5
308.15 K, x2 = 0.6001 | – | 17.5
308.15 K, x2 = 0.7 | – | 7.8
308.15 K, x2 = 0.95 | – | 1.04

O + CCCC[n+]1ccn(C)c1.[Cl-]
x1 = 1
Conditions | viscosity [mPa·s]
293.15 K | 1.01
298.15 K | 0.89
303.15 K | 0.8
308.15 K | 0.72
